Assay results: ChEMBL document CHEMBL4130476, “4-Alkyliden-azetidinones modified with plant derived polyphenols: Antibacterial and antioxidant properties” (2017)
≈ marks a conversion by molar mass, not a printed value.

Assays:
Type in all cases: functional
Staphylococcus aureus [1] = assay: Antibacterial activity against methicillin-susceptible Staphylococcus aureus 69856 assessed as inhibition of bacterial growth incubated for 18 to 24 hrs by broth microdilution method
Enterococcus faecalis [2] = assay: Antibacterial activity against Enterococcus faecalis ATCC 29212 assessed as inhibition of bacterial growth incubated for 18 to 24 hrs by broth microdilution method
[3] = system: Staphylococcus epidermidis; assay: Antibacterial activity against methicillin-susceptible Staphylococcus epidermidis 3226 assessed as inhibition of bacterial growth incubated for 18 to 24 hrs by broth microdilution method
Staphylococcus aureus [4] = assay: Antibacterial activity against methicillin-resistant Staphylococcus aureus 44674 assessed as inhibition of bacterial growth incubated for 18 to 24 hrs by broth microdilution method
Staphylococcus aureus [5] = assay: Antibacterial activity against linezolid and methicillin-resistant Staphylococcus aureus SAU-1 assessed as inhibition of bacterial growth incubated for 18 to 24 hrs by broth microdilution method
Enterococcus faecium = assay: Antibacterial activity against linezolid and vancomycin-resistant Enterococcus faecium VRE2 assessed as inhibition of bacterial growth incubated for 18 to 24 hrs by broth microdilution method
Enterococcus faecalis [6] = assay: Antibacterial activity against linezolid and […] 4150 assessed as inhibition of bacterial growth incubated for 18 to 24 hrs by broth microdilution method
Staphylococcus aureus [7] = assay: Antibacterial activity against Staphylococcus aureus ATCC 29213 assessed as inhibition of bacterial growth incubated for 18 to 24 hrs by broth microdilution method
[8] = system: Staphylococcus epidermidis; assay: Antibacterial activity against linezolid and methicillin-resistant Staphylococcus epidermidis G1027 assessed as inhibition of bacterial growth incubated for 18 to 24 hrs by broth microdilution method
Staphylococcus aureus [9] = assay: Antibacterial activity against methicillin-susceptible Staphylococcus aureus 39249 assessed as inhibition of bacterial growth incubated for 18 to 24 hrs by broth microdilution method
Staphylococcus hominis = assay: Antibacterial activity against linezolid and methicillin-resistant Staphylococcus hominis alpha26 assessed as inhibition of bacterial growth incubated for 18 to 24 hrs by broth microdilution method
[10] = Antioxidant activity assessed as DPPH scavenging activity by measuring mmol of Trolox equivalent antioxidant capacity incubated for 40 mins
[11] = Antioxidant activity assessed as ABTS scavenging activity by measuring mmol of Trolox equivalent antioxidant capacity incubated for 6 mins

| SMILES | MIC (Staphylococcus aureus [1]) | MIC (Enterococcus faecalis [2]) | MIC [3] | MIC (Staphylococcus aureus [4]) | MIC (Staphylococcus aureus [5]) | MIC (Enterococcus faecium) | MIC (Enterococcus faecalis [6]) | MIC (Staphylococcus aureus [7]) | MIC [8] | MIC (Staphylococcus aureus [9]) | MIC (Staphylococcus hominis) | Activity [10] | Activity [11] |
| --- | --- | --- | --- | --- | --- | --- | --- | --- | --- | --- | --- | --- | --- |
| C[C@@H](OC(=O)/C=C/c1ccc2c(c1)OCO2)[C@H]1C(=O)N/C1=C\C(=O)OCc1ccccc1 | > 128 µg/mL | > 128 µg/mL | > 128 µg/mL | > 128 µg/mL | > 128 µg/mL | > 128 µg/mL | > 128 µg/mL | > 128 µg/mL | > 128 µg/mL | > 128 µg/mL | 128 µg/mL (≈ 294 µM) | – | – |
| C[C@@H](OC(=O)/C=C/c1ccc(O)cc1)[C@H]1C(=O)N/C1=C\C(=O)OCc1ccccc1 | 8 µg/mL (≈ 19.6 µM) | > 128 µg/mL | 8 µg/mL (≈ 19.6 µM) | 4 µg/mL (≈ 9.82 µM) | 4 µg/mL (≈ 9.82 µM) | > 128 µg/mL | 64 µg/mL (≈ 157 µM) | 8 µg/mL (≈ 19.6 µM) | 8 µg/mL (≈ 19.6 µM) | 4 µg/mL (≈ 9.82 µM) | 4 µg/mL (≈ 9.82 µM) | 0.003 mmolequiv | 0.053 mmolequiv |
| COc1cc(/C=C/C(=O)O[C@H](C)[C@H]2C(=O)N/C2=C\C(=O)OCc2ccccc2)ccc1O | 8 µg/mL (≈ 18.3 µM) | > 128 µg/mL | 8 µg/mL (≈ 18.3 µM) | 4 µg/mL (≈ 9.14 µM) | 4 µg/mL (≈ 9.14 µM) | > 128 µg/mL | 8 µg/mL (≈ 18.3 µM) | 4 µg/mL (≈ 9.14 µM) | 4 µg/mL (≈ 9.14 µM) | 8 µg/mL (≈ 18.3 µM) | 4 µg/mL (≈ 9.14 µM) | 0.142 mmolequiv | 0.284 mmolequiv |
| C[C@@H](OC(=O)/C=C/c1ccc(O)c(O)c1)[C@H]1C(=O)N/C1=C\C(=O)OCc1ccccc1 | > 128 µg/mL | > 128 µg/mL | > 128 µg/mL | > 128 µg/mL | > 128 µg/mL | > 128 µg/mL | > 128 µg/mL | > 128 µg/mL | > 128 µg/mL | > 128 µg/mL | > 128 µg/mL | 1.67 mmolequiv | 1.03 mmolequiv |
| COc1cc(/C=C/C(=O)O[C@H](C)[C@H]2C(=O)N/C2=C\C(=O)OCc2ccccc2)cc(OC)c1O | > 128 µg/mL | > 128 µg/mL | > 128 µg/mL | 8 µg/mL (≈ 17.1 µM) | 8 µg/mL (≈ 17.1 µM) | > 128 µg/mL | > 128 µg/mL | > 128 µg/mL | > 128 µg/mL | 8 µg/mL (≈ 17.1 µM) | 4 µg/mL (≈ 8.56 µM) | 0.191 mmolequiv | 0.232 mmolequiv |
| CO/N=C(\C(=O)N[C@@H]1C(=O)N2C(C(=O)O)=C(COC(N)=O)CS[C@H]12)c1ccco1 [CEFUROXIME] | 1 µg/mL (≈ 2.36 µM) | > 128 µg/mL | 0.5 µg/mL (≈ 1.18 µM) | 8 µg/mL (≈ 18.9 µM) | > 128 µg/mL | > 128 µg/mL | > 128 µg/mL | 2 µg/mL (≈ 4.71 µM) | 32 µg/mL (≈ 75.4 µM) | 2 µg/mL (≈ 4.71 µM) | 8 µg/mL (≈ 18.9 µM) | – | – |
| C[C@@H](OC(=O)c1ccc(O)c(O)c1)[C@H]1C(=O)N/C1=C\C(=O)OCc1ccccc1 | 4 µg/mL (≈ 10.1 µM) | 128 µg/mL (≈ 322 µM) | 16 µg/mL (≈ 40.3 µM) | 8 µg/mL (≈ 20.1 µM) | 16 µg/mL (≈ 40.3 µM) | 128 µg/mL (≈ 322 µM) | 128 µg/mL (≈ 322 µM) | 16 µg/mL (≈ 40.3 µM) | 16 µg/mL (≈ 40.3 µM) | 4 µg/mL (≈ 10.1 µM) | > 128 µg/mL | 2.59 mmolequiv | 1.3 mmolequiv |
| C[C@@H](OC(=O)/C=C/c1ccccc1O)[C@H]1C(=O)N/C1=C\C(=O)OCc1ccccc1 | > 128 µg/mL | > 128 µg/mL | > 128 µg/mL | > 128 µg/mL | 1 µg/mL (≈ 2.45 µM) | > 128 µg/mL | > 128 µg/mL | 2 µg/mL (≈ 4.91 µM) | > 128 µg/mL | > 128 µg/mL | 2 µg/mL (≈ 4.91 µM) | 0.002 mmolequiv | 0.143 mmolequiv |
| C[C@@H](OC(=O)c1ccc2c(c1)OCO2)[C@H]1C(=O)N/C1=C\C(=O)OCc1ccccc1 | 8 µg/mL (≈ 19.5 µM) | > 128 µg/mL | 8 µg/mL (≈ 19.5 µM) | 4 µg/mL (≈ 9.77 µM) | 2 µg/mL (≈ 4.89 µM) | > 128 µg/mL | > 128 µg/mL | 2 µg/mL (≈ 4.89 µM) | 4 µg/mL (≈ 9.77 µM) | 4 µg/mL (≈ 9.77 µM) | 4 µg/mL (≈ 9.77 µM) | 0.012 mmolequiv | – |
| C[C@@H](OC(=O)c1ccc(O)cc1)[C@H]1C(=O)N/C1=C\C(=O)OCc1ccccc1 | > 128 µg/mL | > 128 µg/mL | > 128 µg/mL | > 128 µg/mL | 2 µg/mL (≈ 5.24 µM) | > 128 µg/mL | > 128 µg/mL | 2 µg/mL (≈ 5.24 µM) | > 128 µg/mL | > 128 µg/mL | 16 µg/mL (≈ 42 µM) | 0.007 mmolequiv | 0.01 mmolequiv |
| C[C@@H](OC(=O)c1cccc2c1OCO2)[C@H]1C(=O)N/C1=C\C(=O)OCc1ccccc1 | > 128 µg/mL | > 128 µg/mL | > 128 µg/mL | > 128 µg/mL | 2 µg/mL (≈ 4.89 µM) | > 128 µg/mL | > 128 µg/mL | 16 µg/mL (≈ 39.1 µM) | > 128 µg/mL | > 128 µg/mL | 8 µg/mL (≈ 19.5 µM) | – | – |
| CN[C@H](CC(C)C)C(=O)N[C@H]1C(=O)N[C@@H](CC(N)=O)C(=O)N[C@H]2C(=O)N[C@H]3C(=O)N[C@H](C(=O)N[C@H](C(=O)O)c4cc(O)cc(O)c4-c4cc3ccc4O)[C@H](O)c3ccc(c(Cl)c3)Oc3cc2cc(c3O[C@@H]2O[C@H](CO)[C@@H](O)[C@H](O)[C@H]2O[C@H]2C[C@](C)(N)[C@H](O)[C@H](C)O2)Oc2ccc(cc2Cl)[C@H]1O [VANCOMYCIN] | – | 2 µg/mL (≈ 1.38 µM) | – | – | – | > 128 µg/mL | 0.25 µg/mL (≈ 0.173 µM) | – | – | – | 1 µg/mL (≈ 0.69 µM) | – | – |
